The text below walks through data of ChEMBL document CHEMBL3507680, “University of Dundee, Gates Library screen for HepG2 cell viability”.

A short description of this series: Human HepG2 cell viability assay in 384 well format. Type of series: toxicity, cell-based. Further details: dose 125 nL, time 70.5 hour; concentration not given beside the values. To be noted: HepG2 cells, read-out: Inhibition.

For `Cc1cccc(CNC(=O)C2CCC(=O)N(Cc3ccccc3F)C2)n1` (stereo unspecified), the cytotoxicity at 70.5 h was -9.23%.

For `CNc1ccc(C)cc1C(=O)N1CCCC2(CCNC2)C1` (stereo unspecified), the cytotoxicity at 70.5 h was -8.09%.

In the case of `O=C1O[C@@H]2CN(Cc3cccnc3)C[C@@H]2N1CCCN1CCOCC1`, the cytotoxicity at 70.5 h is -1.95%.

In the case of `COCC(=O)N1C[C@H]2CNC[C@@]2(C(=O)NCc2cc(C)n[nH]2)C1`, the cytotoxicity at 70.5 h was -5.27%.

With `COc1cc(-c2nc3c([nH]2)CCCNC3=O)ccc1O`, the cytotoxicity at 70.5 h was 5.51%.

Regarding `COc1nc2c(cc1C(=O)NCCCc1nnc(N)s1)CCC2`, the cytotoxicity at 70.5 h was -1.23%.

`CN(CC1CCCCO1)c1nc2c(cc1C(N)=O)CCC2` (stereo unspecified): the cytotoxicity at 70.5 h was -8.46%.

For the compound `O=C(O)[C@@H]1CN(C2CCCC2)C[C@H]1C1CC1`, the cytotoxicity at 70.5 h is -8.02%.

Turning to `CN1CCN(Cc2noc(-c3cc(-c4ccccc4F)n[nH]3)n2)CC1`, the cytotoxicity at 70.5 h was found to be 17.5%.

`Cc1c[nH]c(C(=O)N2CCC(c3nnc(CN(C)CCO)n3C)CC2)c1`: the cytotoxicity at 70.5 h worked out at 4.25%.

Regarding `COc1ccc(F)c(-c2ncccc2NC(=O)C(C)C)c1`, the cytotoxicity at 70.5 h came to 6.17%.

Take `CCc1cc(C(=O)NCC2CCN(Cc3ccncc3)CC2)on1`: the cytotoxicity at 70.5 h was -9.67%.

Turning to `OC1(CN2CCCC2)CCCN(Cc2cnc(-c3ccccc3)nc2)C1` (stereo unspecified), the cytotoxicity at 70.5 h came out at 31.4%.

Take `CN(Cc1cnn(C)c1)C1CCN(c2cccc(-c3cscn3)c2)CC1`: the cytotoxicity at 70.5 h is -2.02%.

In the case of `Cc1nc(CCNC(=O)C(N)c2c(C)n[nH]c2C)sc1C` (stereo unspecified), the cytotoxicity at 70.5 h is -13.1%.

With `O=C(Cc1cccnc1)NC1CCCN(CCCc2ccccc2)C1` (stereo unspecified), the cytotoxicity at 70.5 h is -8.8%.

With `CC(=O)NC1CCN(c2cc(C3CCNCC3)nc(C)n2)C1` (stereo unspecified), the cytotoxicity at 70.5 h is -6.6%.

With `CN(C)C(=O)NCC(=O)N1CCCC2(CCC(=O)N(CC3CC3)C2)C1` (stereo unspecified), the cytotoxicity at 70.5 h was -13.6%.

Consider `O=C(c1c[nH]c(=O)c(Cl)c1)N1C[C@@H]2CC[C@H](C1)N(CC1CCC1)C2`, for which the cytotoxicity at 70.5 h is 19.9%.

`O=C(CC1CCc2ccccc21)N1CCC(C(=O)O)(n2ccnc2)CC1` (stereo unspecified): the cytotoxicity at 70.5 h was 22.5%.

For the compound `N[C@H]1CN(C(=O)CCc2ccccn2)C[C@@H]1c1ccccc1`, the cytotoxicity at 70.5 h was 4.91%.

As to `COc1ccc(CN2CCN(c3nccnc3OC)CC2=O)cc1`, the cytotoxicity at 70.5 h was -4.78%.

As to `CCn1c(CN2CCCC2)nnc1C1CCN(Cc2cc(C)no2)CC1`, the cytotoxicity at 70.5 h is -6.8%.

For `O=C1OCCN1Cc1nc(C2(c3ccc(F)cc3)CCOC2)no1` (stereo unspecified), the cytotoxicity at 70.5 h was -6.4%.

For the compound `O=C1C[C@H]2CC[C@@H](CN1)N2C(=O)CCc1ccc2c(c1)OCO2`, the cytotoxicity at 70.5 h is -12.8%.

For the compound `c1ccc(CCCn2cc(-c3nc(CN4CCOCC4)no3)nn2)cc1`, the cytotoxicity at 70.5 h was -15%.

For the compound `COc1ccccc1OC1CCN(C(=O)CCCN2CCOCC2)CC1`, the cytotoxicity at 70.5 h was -9.29%.

On to `O=C(O)c1cc(-c2ccoc2)cc(S(=O)(=O)NC2CC2)c1`, for which the cytotoxicity at 70.5 h is -6.76%.

Consider `Cc1ccc(CN2CCC3(CCCN(Cc4ccc(F)c(F)c4)C3)C2)o1` (stereo unspecified), for which the cytotoxicity at 70.5 h turned out to be 0.359%.

Turning to `CCN1CC(C(=O)N2CC(Oc3ccccc3Cl)C2)CCC1=O` (stereo unspecified), the cytotoxicity at 70.5 h is -1.72%.

Consider `CCNC(=O)N1CCC(Cc2cccc(C(N)=O)c2)C1` (stereo unspecified), for which the cytotoxicity at 70.5 h is -5.09%.

Turning to `CC(C)(CN1CCC(Cc2ccc(C(=O)O)cc2)C1)N1CCOCC1` (stereo unspecified), the cytotoxicity at 70.5 h is -12.2%.

On to `COC(=O)c1ccccc1C(=O)N(CCN(C)C)Cc1sccc1C`, for which the cytotoxicity at 70.5 h is -7.74%.

As for `Cc1cccc2c1nc(CCO)n2-c1ccc(N)nc1`, the cytotoxicity at 70.5 h was -8.34%.

For `Cc1nc(-c2cc(Cl)cc3c2OC(CN)C3)c[nH]1` (stereo unspecified), the cytotoxicity at 70.5 h worked out at 11.1%.

In the case of `Cc1cc(C)n(C2CN(C(=O)Cn3c(=O)c(C)nc4ccccc43)C2)n1`, the cytotoxicity at 70.5 h came out at 30%.

In the case of `Cc1cc(N2CCCC(N(C)C)C2)n2nccc2n1` (stereo unspecified), the cytotoxicity at 70.5 h came to 9.89%.

Take `CCN1CCCC(C)(C(=O)NCCc2nnc(C)[nH]2)C1` (stereo unspecified): the cytotoxicity at 70.5 h was -3.07%.

As to `CC(C1CCN(Cc2cnc(-c3cccs3)nc2)CC1)N(C)C` (stereo unspecified), the cytotoxicity at 70.5 h is 28.9%.

As for `Cc1ccccc1SC1CCN(C(=O)[C@H]2[C@@H]3CNC[C@@H]32)CC1`, the cytotoxicity at 70.5 h was -1.38%.

`Cn1cc(-c2c(C#N)c(N)nc3c2CCc2[nH]ccc2-3)cn1`: the cytotoxicity at 70.5 h was determined as 17.1%.

With `CCN(C)CC(C)Cn1cnc(-c2ccccc2)c1-c1cncn1CC` (stereo unspecified), the cytotoxicity at 70.5 h was -10.8%.

In the case of `O=C(Nc1cnc2n1CCCC2)c1cccc(NC(=O)C2CCCC2)c1`, the cytotoxicity at 70.5 h is -8.35%.

As to `CN(C)C(=O)c1cccnc1-c1ccc2c(c1)OCO2`, the cytotoxicity at 70.5 h is -11.3%.

As to `O=C1O[C@@H]2CN(c3ccc(Cl)cn3)C[C@@H]2N1CCc1ccc(F)cc1`, the cytotoxicity at 70.5 h is -8.87%.

As for `Cc1ccccc1CN(Cc1ccc(S(C)(=O)=O)cc1)CC(C)C`, the cytotoxicity at 70.5 h is 6.09%.

Consider `CCNc1ccnc(NCC2CNCCO2)n1` (stereo unspecified), for which the cytotoxicity at 70.5 h is -3.23%.

As to `COCCn1ccnc1-c1[nH]cnc1C`, the cytotoxicity at 70.5 h was 6.67%.

Take `CC(C)(C)c1ncc(S(C)(=O)=O)c(C2CCCNC2)n1` (stereo unspecified): the cytotoxicity at 70.5 h was -6.75%.

Consider `CC(c1cccnc1)N(C)Cc1cc(O)c2cc(F)ccc2n1` (stereo unspecified), for which the cytotoxicity at 70.5 h was -6.6%.

As to `COc1cccc2ccc(CN3CCN(c4ccncc4)CC3)nc12`, the cytotoxicity at 70.5 h is -9.89%.

For the compound `CCCNc1ncc(-c2cc(C3CC3)nc(N)c2C#N)cn1`, the cytotoxicity at 70.5 h is -12.1%.

In the case of `CC1=C(C(=O)N2CCCC(Cn3cc(CO)nn3)C2)OCCO1` (stereo unspecified), the cytotoxicity at 70.5 h is -2.23%.

Turning to `NCCc1n[nH]c(=O)n1-c1cccc(Cl)c1Cl`, the cytotoxicity at 70.5 h was -3.82%.

As for `O=C(CCSc1ccc2c(c1)OCCO2)NCC1CCS(=O)(=O)C1` (stereo unspecified), the cytotoxicity at 70.5 h was -3.43%.

With `Cc1cc(C(=O)N2CCCC3(CN(C)C(=O)O3)C2)c2ccc(F)cc2n1` (stereo unspecified), the cytotoxicity at 70.5 h worked out at 16.1%.

Take `Cc1n[nH]c(CN2CCN(CC3CC3)[C@@H]3CS(=O)(=O)C[C@@H]32)n1`: the cytotoxicity at 70.5 h was found to be 44.8%.

For `COC[C@@H]1CCCN1C(=O)c1cc(-c2ccc(OC)cc2)n[nH]1`, the cytotoxicity at 70.5 h was -7.57%.

Take `COc1ccc(-c2noc(CN3CCN(c4cnccn4)CC3)n2)cc1`: the cytotoxicity at 70.5 h is -16.7%.

With `CCn1ccnc1CN1CCC(=O)N(CC2CC2)C(C(C)C)C1` (stereo unspecified), the cytotoxicity at 70.5 h came out at 31.2%.

Turning to `NC(=O)CN1CCCC(C(=O)N2CCC(Oc3ncccn3)CC2)C1` (stereo unspecified), the cytotoxicity at 70.5 h is -2.67%.

`Cc1ccc(C(C(=O)NCCc2nc(C)cc(C)n2)N(C)C)cc1` (stereo unspecified): the cytotoxicity at 70.5 h was -4.39%.

For `CCC(Cn1ccc2[nH]c(=O)c(C#N)cc2c1=O)OC` (stereo unspecified), the cytotoxicity at 70.5 h was -6.98%.

`CCc1nnc(CN2CCc3[nH]c(-c4ccc(OC)cc4)nc3C2)o1`: the cytotoxicity at 70.5 h is -9.04%.

Consider `COCC1CCN(S(=O)(=O)c2ccc(C(=O)NCC(F)F)cc2)C1` (stereo unspecified), for which the cytotoxicity at 70.5 h amounted to 9.26%.

On to `Cc1cc(N[C@H]2CCCC[C@@H]2O)n2nccc2n1`, for which the cytotoxicity at 70.5 h is 5.62%.

Take `O=C(c1cn(CCN2CCCCC2)nn1)N1CCCO1`: the cytotoxicity at 70.5 h is -6.13%.

As for `CC(C)C1CN(c2cccc(C#N)n2)CCCN1Cc1ccc(F)cc1` (stereo unspecified), the cytotoxicity at 70.5 h was -15.7%.

With `Cc1cccc(C)c1NC(=O)c1cccc(CN2CCCC2C)c1` (stereo unspecified), the cytotoxicity at 70.5 h is 3.17%.

Turning to `COCCN(C)c1nc(-c2ccncc2)nc2c1CCN(C(C)=O)C2`, the cytotoxicity at 70.5 h is -7.41%.

As to `c1cnc(N2CCN(CCn3ccnc3-c3ccncc3)CC2)nc1`, the cytotoxicity at 70.5 h is 12.5%.

Consider `CO[C@H]1CNC[C@@H]1NC(=O)CCc1nc(-c2ccccc2)no1`, for which the cytotoxicity at 70.5 h is -0.167%.

With `CC/C=C(\C)CN1CCC(CNC(=O)c2ccnc(N)c2)C1` (stereo unspecified), the cytotoxicity at 70.5 h worked out at 15%.

In the case of `CC(C)(C)c1cc(CN2C[C@H]3CC[C@@H]2CN(Cc2cscn2)C3)n[nH]1`, the cytotoxicity at 70.5 h was 13.7%.

Consider `CC(C)NC(=O)[C@@H]1C[C@H](N)CN1C(=O)C1(c2ccc(Cl)cc2)CCC1`, for which the cytotoxicity at 70.5 h is -9.78%.

Regarding `Cc1nc(C(=O)N2CCN(c3ncccn3)[C@@H]3CS(=O)(=O)C[C@@H]32)cs1`, the cytotoxicity at 70.5 h is -7.79%.

On to `Cc1nnc(-c2cccc(N3CCC(NC(C)CC(C)C)CC3)c2)s1` (stereo unspecified), for which the cytotoxicity at 70.5 h is -4.36%.

Turning to `COc1ccc(C(C(=O)O)N(C)CCN2CCCC2)c(C)c1` (stereo unspecified), the cytotoxicity at 70.5 h worked out at 24%.

`CCCc1nc(C(=O)NCc2cccnc2-n2cncn2)cs1`: the cytotoxicity at 70.5 h is 7.67%.

Turning to `O=C(C1CCOc2ccccc2C1)N1Cc2cnn(CCO)c2C1` (stereo unspecified), the cytotoxicity at 70.5 h was determined as 9.23%.

Take `Cc1cc(CC(C)NC(=O)Cc2cc(F)ccc2C)[nH]n1` (stereo unspecified): the cytotoxicity at 70.5 h turned out to be 3.68%.

Consider `O=C(CCO)N1C[C@H]2CC[C@@H]1CN(C1Cc3ccccc3C1)C2`, for which the cytotoxicity at 70.5 h is -9.88%.

`O=C(Cc1ccc(O)c(F)c1)N1CCN(CC2CC2)[C@@H]2CS(=O)(=O)C[C@@H]21`: the cytotoxicity at 70.5 h is -6.03%.

With `Cc1ccsc1C(CNC(=O)c1cc(=O)[nH]c(=O)[nH]1)N(C)C` (stereo unspecified), the cytotoxicity at 70.5 h was 17.7%.

In the case of `Cc1ccc(Sc2ccc(CN3CCC4(CC3)NCCNC4=O)o2)cc1`, the cytotoxicity at 70.5 h came out at 1.08%.

As to `CC(C)(C)CN1CCN(CC2CC2)C(CCO)C1` (stereo unspecified), the cytotoxicity at 70.5 h was -0.19%.

For `Cc1cc(CN(C)C(=O)C2CC(=O)N(Cc3cccnc3)C2)on1` (stereo unspecified), the cytotoxicity at 70.5 h is -9.4%.

For the compound `O=C(O)[C@@H]1CN(Cc2cc3c(cc2Cl)OCO3)C[C@H]1C1CC1`, the cytotoxicity at 70.5 h is -1.73%.

On to `c1cc2c(cc1C[C@@H]1CC[C@H](CN3CCCOCC3)O1)OCO2`, for which the cytotoxicity at 70.5 h was -5.03%.

Regarding `CN(C)C[C@@H]1CN(Cc2ccccc2C#N)C[C@@H]1CO`, the cytotoxicity at 70.5 h is 2.25%.

For `COc1ccccc1OC1CN(C(=O)c2ccccc2C(C)=O)C1`, the cytotoxicity at 70.5 h is -19.5%.

Turning to `NC(=O)c1cncc(-n2ccc(-c3cnccn3)n2)c1`, the cytotoxicity at 70.5 h is -8.7%.

Regarding `CN1CC2(CCCN(Cc3ccccc3OCC(=O)O)C2)OC1=O` (stereo unspecified), the cytotoxicity at 70.5 h is -2.41%.

As for `CCN1CCN(Cc2nc(CCc3ccccc3)n[nH]2)CC1`, the cytotoxicity at 70.5 h was 29.9%.

For the compound `O=C([C@@H](O)Cc1ccccc1)N1CCCn2cncc2C1`, the cytotoxicity at 70.5 h was -7.92%.

`CCN1CCCC(C)(C(=O)NCCCc2nc(C)cs2)C1` (stereo unspecified): the cytotoxicity at 70.5 h was -10.4%.
